Measured values reported in patent US4362743A, “Antibacterial monic acid esters” (Beecham Group Limited, priority 1980, dated 1982).
Converted amounts (≈) assume the structure as drawn. Like-named read-outs stand apart in the source and are kept apart here.

Columns and labels:
Format in all cases: cell-based
[1] = tested on: M. suipneumoniae HK (2); assay: Anti-mycoplasmal activity in vitro MIC; conditions: Mesomycoplasma hyopneumoniae, 144 h
[2] = tested on: M. suipneumoniae JF 435; assay: Anti-mycoplasmal activity in vitro MIC; conditions: Mesomycoplasma hyopneumoniae, JF435, 144 h
[3] = tested on: M. gallisepticum S6; assay: Anti-mycoplasmal activity in vitro MIC; conditions: Mycoplasmoides gallisepticum
[4] = tested on: M. suipneumoniae Str. 11; assay: Anti-mycoplasmal activity in vitro MIC; conditions: Mesomycoplasma hyopneumoniae
[5] = tested on: M. suipneumoniae J2206/183b; assay: Anti-mycoplasmal activity in vitro MIC; conditions: Mesomycoplasma hyopneumoniae, 144 h
[6] = tested on: Strep. faecalis I; assay: Human bacteria MIC; conditions: Enterococcus faecalis, nutrient agar, 5% chocolated horse blood, 18 hours 37° C.
Procedure: (§1) The values were determined by serial dilutions in nutrient agar with 5% chocolated horse blood after incubations for 18 hours at 37° C.

[7] = tested on: Staph. aureus Oxford; assay: Human bacteria MIC; conditions: Staphylococcus aureus; Staph. aureus Oxford; nutrient agar, 5% chocolated horse blood, 18 hours 37° C.; read-out: M.I.C.
Procedure: as §1

[8] = tested on: Strep Group B 2788; assay: Human bacteria MIC
Procedure: as §1

[9] = tested on: Pasteurella multocida 1633; assay: Human bacteria MIC
Procedure: as §1

[10] = tested on: Neisseria catarralis 1502; assay: Human bacteria MIC
Procedure: as §1

[11] = tested on: Corneybacterium xerosis 9755; assay: Human bacteria MIC; conditions: Corneybacterium xerosis 9755; nutrient agar, 5% chocolated horse blood, 18 hours 37° C.; read-out: M.I.C.
Procedure: as §1

[12] = tested on: Haemophilus influenzae Q1; assay: Human bacteria MIC
Procedure: as §1

[13] = tested on: M. bovis NCTC 10131; assay: microbe, parasite or virus in culture; conditions: NCTC10131, 144 h
[14] = tested on: S. typhimurium S18; assay: Veterinary bacteria MIC; conditions: Salmonella enterica; S. typhimurium S18; Diagnostic Sensitivity Test Agar, 18 hours 37° C.; read-out: M.I.C.
Procedure: (§2) The values were determined using a two fold serial dilutions in Diagnostic Sensitivity Test Agar with an inoculum of 10^4 organisms and incubation for 18 hours at 37° C.

[15] = tested on: Past. multocida PA2; assay: Veterinary bacteria MIC; conditions: Pasteurella multocida
Procedure: as §2

[16] = tested on: Past. multocida PA1; assay: Veterinary bacteria MIC; conditions: Pasteurella multocida, Diagnostic Sensitivity Test Agar, 18 hours 37° C.
Procedure: as §2

[17] = tested on: Staph. aureus Oxford; assay: Veterinary bacteria MIC; conditions: Staphylococcus aureus, Diagnostic Sensitivity Test Agar, 18 hours 37° C.
Procedure: as §2

[18] = tested on: Staph. aureus B4 (pen. resistant); assay: Veterinary bacteria MIC; conditions: Staphylococcus aureus, Diagnostic Sensitivity Test Agar, 18 hours 37° C.
Procedure: as §2

[19] = tested on: Past. haemolytica PA5; assay: Veterinary bacteria MIC; conditions: Mannheimia haemolytica; Past. haemolytica PA5; Diagnostic Sensitivity Test Agar, 18 hours 37° C.; read-out: M.I.C.
Procedure: as §2

[20] = tested on: Strep. uberis SPU1; assay: Veterinary bacteria MIC; conditions: Streptococcus uberis, Diagnostic Sensitivity Test Agar, 18 hours 37° C.
Procedure: as §2

[21] = tested on: E. coli NCTC 10418; assay: Veterinary bacteria MIC; conditions: Escherichia coli, NCTC10418; E. coli NCTC 10418; Diagnostic Sensitivity Test Agar, 18 hours 37° C.; read-out: M.I.C.
Procedure: as §2

[22] = tested on: S. dublin S7; assay: Veterinary bacteria MIC; conditions: Salmonella enterica; S. dublin S7; Diagnostic Sensitivity Test Agar, 18 hours 37° C.; read-out: M.I.C.
Procedure: as §2

[23] = tested on: Strep. dysgalactiae SPD1; assay: Veterinary bacteria MIC; conditions: Streptococcus dysgalactiae, Diagnostic Sensitivity Test Agar, 18 hours 37° C.
Procedure: as §2

[24] = tested on: E. coli El; assay: Veterinary bacteria MIC; conditions: Escherichia coli; E. coli El; Diagnostic Sensitivity Test Agar, 18 hours 37° C.; read-out: M.I.C.
Procedure: as §2

[25] = tested on: Strep. agalactiae SPA1; assay: Veterinary bacteria MIC; conditions: Streptococcus agalactiae, Diagnostic Sensitivity Test Agar, 18 hours 37° C.
Procedure: as §2

[26] = tested on: Erysipelothrix rhusiopathiae NCTC 8163; assay: Veterinary bacteria MIC
Procedure: as §2

[27] = tested on: Bord. brochiasetpica B09; assay: Veterinary bacteria MIC; conditions: Diagnostic Sensitivity Test Agar, 18 hours 37° C.
Procedure: as §2

[28] = tested on: Bord. bronchiseptica B08; assay: Veterinary bacteria MIC; conditions: Bordetella bronchiseptica; Bord. bronchiseptica B08; Diagnostic Sensitivity Test Agar, 18 hours 37° C.; read-out: M.I.C.
Procedure: as §2

[29] = tested on: Corynebacterium pyogenes CY1; assay: Veterinary bacteria MIC; conditions: Trueperella pyogenes; Corynebacterium pyogenes CY1; Diagnostic Sensitivity Test Agar, 18 hours 37° C.; read-out: M.I.C.
Procedure: as §2

[30] = tested on: Strep. suis (Group D) SPS11; assay: Veterinary bacteria MIC; conditions: Streptococcus suis; Strep. suis (Group D) SPS11; Diagnostic Sensitivity Test Agar, 18 hours 37° C.; read-out: M.I.C.
Procedure: as §2

[31] = tested on: Staph. aureus 152 (pen. sens); assay: Veterinary bacteria MIC; conditions: Staphylococcus aureus, Diagnostic Sensitivity Test Agar, 18 hours 37° C.
Procedure: as §2

[32] = tested on: M. hyosynoviae ATCC 25591; assay: Anti-mycoplasmal activity in vitro MIC; conditions: 144 h
[33] = M. suipneumoniae HK (2), Friis broth, 0.9% agarose, 6 days 37° C., read-out: M.I.C.
[34] = M. suipneumoniae JF 435, Friis broth, 0.9% agarose, 6 days 37° C., read-out: M.I.C.
[35] = M. suipneumoniae J2206/183b, Friis broth, 0.9% agarose, 6 days 37° C., read-out: M.I.C.
[36] = Pasteurella multocida, 1633, 18 h
[37] = Past. multocida PA2, Diagnostic Sensitivity Test Agar, 18 hours 37° C., read-out: M.I.C.
[38] = NCTC8163, Erysipelothrix rhusiopathiae NCTC 8163, Diagnostic Sensitivity Test Agar, 18 hours 37° C., read-out: M.I.C.
[39] = 144 h, M. gallisepticum S6, Friis broth, 0.9% agarose, 6 days 37° C., read-out: M.I.C.
[40] = Strep Group B 2788, nutrient agar, 5% chocolated horse blood, 18 hours 37° C., read-out: M.I.C.
[41] = Neisseria catarralis 1502, nutrient agar, 5% chocolated horse blood, 18 hours 37° C., read-out: M.I.C.
[42] = Haemophilus influenzae Q1, nutrient agar, 5% chocolated horse blood, 18 hours 37° C., read-out: M.I.C.

Row | Structure (SMILES) | MIC [6] [µg/mL] | MIC [7] [µg/mL] | MIC [11] [µg/mL] | MIC [13] [µg/mL] | MIC [14] [µg/mL] | MIC [16] [µg/mL] | MIC [17] [µg/mL] | MIC [18] [µg/mL] | MIC [19] [µg/mL] | MIC [20] [µg/mL] | MIC [21] [µg/mL] | MIC [22] [µg/mL] | MIC [23] [µg/mL] | MIC [24] [µg/mL] | MIC [25] [µg/mL] | MIC [27] [µg/mL] | MIC [28] [µg/mL] | MIC [29] [µg/mL] | MIC [30] [µg/mL] | MIC [31] [µg/mL] | other results
1 | C/C(=C\C(=O)OC1CCC(=NO)CC1)C[C@@H]1OC[C@H](C[C@@H]2O[C@H]2[C@@H](C)[C@H](C)O)[C@@H](O)[C@H]1O (stereo partly drawn) [Example 3, 4-Hydroxyiminocyclohexyl monate A] | 25 (≈ 54.9 µM) | 2.5 (≈ 5.49 µM) | > 100 | ≤ 0.01 | > 80 | 1.25 (≈ 2.74 µM) | 1.25 (≈ 2.74 µM) | 2.5 (≈ 5.49 µM) | 5 (≈ 11 µM) | 0.156 (≈ 0.342 µM) | > 80 | > 80 | 0.312 (≈ 0.685 µM) | > 80 | 0.625 (≈ 1.37 µM) | 20 (≈ 43.9 µM) | > 80 | > 80 | 2.5 (≈ 5.49 µM) | 1.25 (≈ 2.74 µM) | MIC [1, 33]: 0.5 µg/mL (≈ 1.1 µM); MIC [2, 34]: 0.5 µg/mL (≈ 1.1 µM); MIC ([3]; S6, 144 h): 5 µg/mL (≈ 11 µM); MIC ([4]; STR.11, 144 h): 0.25 µg/mL (≈ 0.549 µM); MIC [5, 35]: 0.5 µg/mL (≈ 1.1 µM); MIC ([8]; 18 h): 1 µg/mL (≈ 2.2 µM); MIC [9, 36]: 1 µg/mL (≈ 2.2 µM); MIC ([10]; Neisseria, 1502, 18 h): 1 µg/mL (≈ 2.2 µM); MIC ([12]; Haemophilus influenzae, Q1, 18 h): 0.25 µg/mL (≈ 0.549 µM); MIC [15, 37]: 0.312 µg/mL (≈ 0.685 µM); MIC [26, 38]: 10 µg/mL (≈ 22 µM); MIC [32]: 0.1 µg/mL (≈ 0.22 µM)
2 | C/C(=C\C(=O)OCCCC(=NO)c1cccs1)C[C@@H]1OC[C@H](C[C@@H]2O[C@H]2[C@@H](C)[C@H](C)O)[C@@H](O)[C@H]1O [Example 4, 4-Hydroxyimino-4-(2-thienyl)butyl monate A] | 100 (≈ 195 µM) | 1 (≈ 1.95 µM) | > 100 | 0.025 (≈ 0.0489 µM) | > 80 | 2.5 (≈ 4.89 µM) | 0.312 (≈ 0.61 µM) | 0.625 (≈ 1.22 µM) | 20 (≈ 39.1 µM) | 0.312 (≈ 0.61 µM) | > 80 | > 80 | 0.625 (≈ 1.22 µM) | > 80 | 0.625 (≈ 1.22 µM) | 5 (≈ 9.77 µM) | > 80 | > 80 | 10 (≈ 19.5 µM) | 0.312 (≈ 0.61 µM) | MIC [1]: 0.5 µg/mL (≈ 0.977 µM); MIC [2]: 0.5 µg/mL (≈ 0.977 µM); MIC [3, 39]: 10 µg/mL (≈ 19.5 µM); MIC ([4]; 144 h, M. suipneumoniae Str. 11, Friis broth, 0.9% agarose, 6 days 37° C., read-out: M.I.C.): 0.25 µg/mL (≈ 0.489 µM); MIC ([5]; J2206/183B): 0.5 µg/mL (≈ 0.977 µM); MIC [8, 40]: 2.5 µg/mL (≈ 4.89 µM); MIC ([9]; Pasteurella multocida 1633, nutrient agar, 5% chocolated horse blood, 18 hours 37° C., read-out: M.I.C.): 5 µg/mL (≈ 9.77 µM); MIC [10, 41]: 0.5 µg/mL (≈ 0.977 µM); MIC [12, 42]: 0.5 µg/mL (≈ 0.977 µM); MIC ([15]; PA2, 18 h): 0.156 µg/mL (≈ 0.305 µM); MIC [26, 38]: 20 µg/mL (≈ 39.1 µM); MIC ([32]; M. hyosynoviae ATCC 25591, Friis broth, 0.9% agarose, 6 days 37° C., read-out: M.I.C.): 0.25 µg/mL (≈ 0.489 µM)
3 | CON=C(CCCOC(=O)/C=C(\C)C[C@@H]1OC[C@H](C[C@@H]2O[C@H]2[C@@H](C)[C@H](C)O)[C@@H](O)[C@H]1O)c1ccccc1 [Example 5, 4-Methoxyimino-4-phenylbutyl monate A] | > 100 | 1 (≈ 1.92 µM) | > 100 | 0.025 (≈ 0.0481 µM) | > 80 | 20 (≈ 38.5 µM) | 0.625 (≈ 1.2 µM) | 0.625 (≈ 1.2 µM) | 80 (≈ 154 µM) | 0.625 (≈ 1.2 µM) | > 80 | > 80 | 1.25 (≈ 2.41 µM) | > 80 | 1.25 (≈ 2.41 µM) | 40 (≈ 77 µM) | > 80 | > 80 | 20 (≈ 38.5 µM) | 0.625 (≈ 1.2 µM) | MIC [1, 33]: 0.5 µg/mL (≈ 0.962 µM); MIC [2, 34]: 0.5 µg/mL (≈ 0.962 µM); MIC [3, 39]: 10 µg/mL (≈ 19.2 µM); MIC ([4]; STR.11, 144 h): 0.25 µg/mL (≈ 0.481 µM); MIC [5, 35]: 0.5 µg/mL (≈ 0.962 µM); MIC [8, 40]: 5 µg/mL (≈ 9.62 µM); MIC [9, 36]: 50 µg/mL (≈ 96.2 µM); MIC [10, 41]: 1 µg/mL (≈ 1.92 µM); MIC [12, 42]: 2.5 µg/mL (≈ 4.81 µM); MIC [15, 37]: 0.039 µg/mL (≈ 0.0751 µM); MIC ([26]; Erysipelothrix rhusiopathiae, NCTC8163, 18 h): 40 µg/mL (≈ 77 µM); MIC [32]: 0.25 µg/mL (≈ 0.481 µM)
